System: Crude diglycosidase
Experiment: Examination of substrate concentration in the conversion into isoflavone aglycons by diglycosidase using soybean materials;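 further: percent of the isoflavone family total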
Assay type: biochemical, Penicillium multicolor IAM7153
In short: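 Reaction at 55° C, shaken, pH 4.0 (20 mM acetate), using crude diglycosidase from a 1.88 AU/mL enzyme solution on soy flour, soymilk, defatted soybean or soy protein concentrate at 2, 5, 10, 20 or 30% (w/v). Isoflavone aglycons quantified by HPLC of ethanol extracts at 0, 1, 3, 6 h.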

Question: For COc1cc2c(=O)c(-c3ccc(O)cc3)coc2cc1O[C@@H]1O[C@H](COC(=O)CC(=O)O)[C@@H](O)[C@H](O)[C@H]1O [malonylglycitin, 6″-O-malonylglycitin], which “Decomposition efficiency: ratio of each glycoside/aglycon within its isoflavone family” value (roasted soy flour, substrate concentration 2%, heat treatment of enzyme no, reaction time 1 h) is on record?
Answer: not detected

Question: And the “Decomposition efficiency: ratio of each glycoside/aglycon within its isoflavone family” value (roasted soy flour, substrate concentration 2%, heat treatment of enzyme no, reaction time 3 h)?
Answer: not detected

Question: What about the “Decomposition efficiency: ratio of each glycoside/aglycon within its isoflavone family” value (roasted soy flour, substrate concentration 2%, heat treatment of enzyme no, reaction time 6 h) of the same molecule?
Answer: not detected

Question: And the “Decomposition efficiency: ratio of each glycoside/aglycon within its isoflavone family” value (roasted soy flour, substrate concentration 2%, heat treatment of enzyme yes, reaction time 6 h)?
Answer: not detected

Question: And the “Decomposition efficiency: ratio of each glycoside/aglycon within its isoflavone family” value (roasted soy flour, substrate concentration 5%, heat treatment of enzyme no, reaction time 0 h)?
Answer: not detected

Question: What about the “Decomposition efficiency: ratio of each glycoside/aglycon within its isoflavone family” value (roasted soy flour, substrate concentration 5%, heat treatment of enzyme no, reaction time 1 h) of the same molecule?
Answer: not detected

Question: What about the “Decomposition efficiency: ratio of each glycoside/aglycon within its isoflavone family” value (roasted soy flour, substrate concentration 5%, heat treatment of enzyme no, reaction time 3 h) of the same molecule?
Answer: not detected

Question: And the “Decomposition efficiency: ratio of each glycoside/aglycon within its isoflavone family” value (roasted soy flour, substrate concentration 5%, heat treatment of enzyme no, reaction time 6 h)?
Answer: not detected

Question: And the “Decomposition efficiency: ratio of each glycoside/aglycon within its isoflavone family” value (roasted soy flour, substrate concentration 5%, heat treatment of enzyme yes, reaction time 6 h)?
Answer: not detected

Question: What about the “Decomposition efficiency: ratio of each glycoside/aglycon within its isoflavone family” value (roasted soy flour, substrate concentration 10%, heat treatment of enzyme no, reaction time 0 h) of the same molecule?
Answer: not detected

Question: What about the “Decomposition efficiency: ratio of each glycoside/aglycon within its isoflavone family” value (roasted soy flour, substrate concentration 10%, heat treatment of enzyme no, reaction time 1 h) of the same molecule?
Answer: not detected

Question: What about the “Decomposition efficiency: ratio of each glycoside/aglycon within its isoflavone family” value (roasted soy flour, substrate concentration 10%, heat treatment of enzyme no, reaction time 3 h) of the same molecule?
Answer: not detected

Question: What about the “Decomposition efficiency: ratio of each glycoside/aglycon within its isoflavone family” value (roasted soy flour, substrate concentration 10%, heat treatment of enzyme no, reaction time 6 h) of the same molecule?
Answer: not detected

Question: And the “Decomposition efficiency: ratio of each glycoside/aglycon within its isoflavone family” value (roasted soy flour, substrate concentration 10%, heat treatment of enzyme yes, reaction time 6 h)?
Answer: not detected

Question: And the “Decomposition efficiency: ratio of each glycoside/aglycon within its isoflavone family” value (roasted soy flour, substrate concentration 20%, heat treatment of enzyme no, reaction time 0 h)?
Answer: not detected

Question: And the “Decomposition efficiency: ratio of each glycoside/aglycon within its isoflavone family” value (roasted soy flour, substrate concentration 20%, heat treatment of enzyme no, reaction time 1 h)?
Answer: not detected

Question: What about the “Decomposition efficiency: ratio of each glycoside/aglycon within its isoflavone family” value (roasted soy flour, substrate concentration 20%, heat treatment of enzyme no, reaction time 3 h) of the same molecule?
Answer: not detected

Question: And the “Decomposition efficiency: ratio of each glycoside/aglycon within its isoflavone family” value (roasted soy flour, substrate concentration 20%, heat treatment of enzyme no, reaction time 6 h)?
Answer: not detected

Question: What about the “Decomposition efficiency: ratio of each glycoside/aglycon within its isoflavone family” value (roasted soy flour, substrate concentration 20%, heat treatment of enzyme yes, reaction time 6 h) of the same molecule?
Answer: not detected

Question: What about the “Decomposition efficiency: ratio of each glycoside/aglycon within its isoflavone family” value (roasted soy flour, substrate concentration 30%, heat treatment of enzyme no, reaction time 0 h) of the same molecule?
Answer: not detected

Question: What about the “Decomposition efficiency: ratio of each glycoside/aglycon within its isoflavone family” value (roasted soy flour, substrate concentration 30%, heat treatment of enzyme no, reaction time 1 h) of the same molecule?
Answer: not detected

Question: What about the “Decomposition efficiency: ratio of each glycoside/aglycon within its isoflavone family” value (roasted soy flour, substrate concentration 30%, heat treatment of enzyme no, reaction time 3 h) of the same molecule?
Answer: not detected

Question: What about the “Decomposition efficiency: ratio of each glycoside/aglycon within its isoflavone family” value (roasted soy flour, substrate concentration 30%, heat treatment of enzyme no, reaction time 6 h) of the same molecule?
Answer: not detected

Question: And the “Decomposition efficiency: ratio of each glycoside/aglycon within its isoflavone family” value (roasted soy flour, substrate concentration 30%, heat treatment of enzyme yes, reaction time 6 h)?
Answer: not detected

Question: What about the “Decomposition efficiency: ratio of each glycoside/aglycon within its isoflavone family” value (soymilk, substrate concentration 2%, heat treatment of enzyme no, reaction time 0 h) of the same molecule?
Answer: 28.2%

Question: What about the “Decomposition efficiency: ratio of each glycoside/aglycon within its isoflavone family” value (soymilk, substrate concentration 2%, heat treatment of enzyme no, reaction time 1 h) of the same molecule?
Answer: not detected

Question: What about the “Decomposition efficiency: ratio of each glycoside/aglycon within its isoflavone family” value (soymilk, substrate concentration 2%, heat treatment of enzyme no, reaction time 3 h) of the same molecule?
Answer: not detected

Question: And the “Decomposition efficiency: ratio of each glycoside/aglycon within its isoflavone family” value (soymilk, substrate concentration 2%, heat treatment of enzyme no, reaction time 6 h)?
Answer: not detected

Question: And the “Decomposition efficiency: ratio of each glycoside/aglycon within its isoflavone family” value (soymilk, substrate concentration 2%, heat treatment of enzyme yes, reaction time 6 h)?
Answer: 48.2%

Question: What about the “Decomposition efficiency: ratio of each glycoside/aglycon within its isoflavone family” value (soymilk, substrate concentration 5%, heat treatment of enzyme no, reaction time 0 h) of the same molecule?
Answer: 50.6%

Question: And the “Decomposition efficiency: ratio of each glycoside/aglycon within its isoflavone family” value (soymilk, substrate concentration 5%, heat treatment of enzyme no, reaction time 1 h)?
Answer: 24.6%

Question: What about the “Decomposition efficiency: ratio of each glycoside/aglycon within its isoflavone family” value (soymilk, substrate concentration 5%, heat treatment of enzyme no, reaction time 3 h) of the same molecule?
Answer: 7.5%

Question: What about the “Decomposition efficiency: ratio of each glycoside/aglycon within its isoflavone family” value (soymilk, substrate concentration 5%, heat treatment of enzyme no, reaction time 6 h) of the same molecule?
Answer: not detected

Question: And the “Decomposition efficiency: ratio of each glycoside/aglycon within its isoflavone family” value (soymilk, substrate concentration 5%, heat treatment of enzyme yes, reaction time 6 h)?
Answer: 43.3%

Question: What about the “Decomposition efficiency: ratio of each glycoside/aglycon within its isoflavone family” value (soymilk, substrate concentration 10%, heat treatment of enzyme no, reaction time 0 h) of the same molecule?
Answer: 41.1%

Question: And the “Decomposition efficiency: ratio of each glycoside/aglycon within its isoflavone family” value (soymilk, substrate concentration 10%, heat treatment of enzyme no, reaction time 1 h)?
Answer: 26.4%

Question: And the “Decomposition efficiency: ratio of each glycoside/aglycon within its isoflavone family” value (soymilk, substrate concentration 10%, heat treatment of enzyme no, reaction time 3 h)?
Answer: 10.5%

Question: What about the “Decomposition efficiency: ratio of each glycoside/aglycon within its isoflavone family” value (soymilk, substrate concentration 10%, heat treatment of enzyme no, reaction time 6 h) of the same molecule?
Answer: 4.2%

Question: What about the “Decomposition efficiency: ratio of each glycoside/aglycon within its isoflavone family” value (soymilk, substrate concentration 10%, heat treatment of enzyme yes, reaction time 6 h) of the same molecule?
Answer: 37.0%

Question: What about the “Decomposition efficiency: ratio of each glycoside/aglycon within its isoflavone family” value (soymilk, substrate concentration 20%, heat treatment of enzyme no, reaction time 0 h) of the same molecule?
Answer: 41.3%

Question: What about the “Decomposition efficiency: ratio of each glycoside/aglycon within its isoflavone family” value (soymilk, substrate concentration 20%, heat treatment of enzyme no, reaction time 1 h) of the same molecule?
Answer: 27.8%

Question: And the “Decomposition efficiency: ratio of each glycoside/aglycon within its isoflavone family” value (soymilk, substrate concentration 20%, heat treatment of enzyme no, reaction time 3 h)?
Answer: 9.4%

Question: And the “Decomposition efficiency: ratio of each glycoside/aglycon within its isoflavone family” value (soymilk, substrate concentration 20%, heat treatment of enzyme no, reaction time 6 h)?
Answer: 5.9%

Question: And the “Decomposition efficiency: ratio of each glycoside/aglycon within its isoflavone family” value (soymilk, substrate concentration 20%, heat treatment of enzyme yes, reaction time 6 h)?
Answer: 38.8%

Question: What about the “Decomposition efficiency: ratio of each glycoside/aglycon within its isoflavone family” value (soymilk, substrate concentration 30%, heat treatment of enzyme no, reaction time 0 h) of the same molecule?
Answer: 43.0%

Question: And the “Decomposition efficiency: ratio of each glycoside/aglycon within its isoflavone family” value (soymilk, substrate concentration 30%, heat treatment of enzyme no, reaction time 1 h)?
Answer: 33.1%

Question: What about the “Decomposition efficiency: ratio of each glycoside/aglycon within its isoflavone family” value (soymilk, substrate concentration 30%, heat treatment of enzyme no, reaction time 3 h) of the same molecule?
Answer: 15.9%

Question: And the “Decomposition efficiency: ratio of each glycoside/aglycon within its isoflavone family” value (soymilk, substrate concentration 30%, heat treatment of enzyme no, reaction time 6 h)?
Answer: 7.7%

Question: And the “Decomposition efficiency: ratio of each glycoside/aglycon within its isoflavone family” value (soymilk, substrate concentration 30%, heat treatment of enzyme yes, reaction time 6 h)?
Answer: 37.5%
